One may read the Inhibition as the share of the control response that was lost under treatment. A lower Inhibition goes with a weak effect. The IC50 is the midpoint of a concentration-inhibition curve. Broadly, the half-life is how long it takes for the measured level to halve. The low end stands for rapid decline, the high end for slow decline. By Ki is commonly meant the dissociation constant of the complex between target and ligand, obtained from inhibition or displacement. A low value points to a stronger hold on the target.

Calls of active or inactive are those of the source. The rule behind the calls is not given here.

The species entered for data set [1] is Oryctolagus cuniculus. The data set can be described thus: Plasma concentration required to inhibit thrombosis formation in rabbit. In kind it is functional, organism-based.
Data set [2] in a line: In vitro anticoagulant activity was measured by prothrombin time (PT) assay. In kind it is functional.
For data set [3], the target named is T1, Coagulation factor X (Homo sapiens, UniProt P00742). The data set can be described thus: In vitro binding affinity towards factor Xa; Not active.
Data set [4] is described as follows: In vitro anticoagulant activity was measured by plasma based on thrombin generation (TG) assay. In kind it is functional.
Data set [5] is filed under the species Oryctolagus cuniculus. Briefly: Inhibition thrombosis formation in rabbit. In kind it is functional.
Data set [6] can be described thus: Inhibitory activity against Kallikrein.
Data set [7] in a line: In vitro anticoagulant activity was measured by activated partial thromboplastin time (APTT) assay. In kind it is functional.
In another data set the target is Plasminogen (Homo sapiens, UniProt P00747). The data set can be described thus: Inhibitory activity against Plasmin.
Data set [8] deals with T1, Coagulation factor X. Briefly: (§1) In vitro binding affinity towards factor Xa.
In data set [9] the test system is Oryctolagus cuniculus. The data set can be described thus: In vivo plasma concentration required to inhibit thrombosis formation in rabbit. In kind it is functional, organism-based.
Data set [10] can be described thus: In vivo half life period after intravenous administration in rat. It is filed as ADME, organism-based.
A short description of data set [11]: In vitro anticoagulant activity was measured by plasma based thrombin generation (TG) assay. In kind it is functional.
The target in another data set is Prothrombin (Homo sapiens, UniProt P00734). The data set can be described thus: In vitro inhibitory activity against serine protease thrombin.
The target in data set [12] is Tissue-type plasminogen activator (Homo sapiens, UniProt P00750). The data set can be described thus: Inhibitory activity against tissue plasminogen activator (tissue plasminogen activator).
Data set [13] concerns the target T1, Coagulation factor X. Briefly: In vitro inhibitory activity against factor Xa.
The test system of data set [14] is Oryctolagus cuniculus. The data set can be described thus: In vivo inhibition of thrombosis formation in rabbit. It is filed as functional.
Data set [15] has as its target T1, Coagulation factor X. The description is as §1. The source holds these as a separate data set.
The target of data set [16] is Vitamin K-dependent protein C (Homo sapiens, UniProt P04070). Briefly: Inhibitory activity against activated protein C (aPC).
The next data set has as its target Serine protease 1 (Homo sapiens, UniProt P07477). Briefly: Inhibitory activity against Trypsin.
The nature of data set [17]: Half life period after intravenous administration in rat. It is filed as ADME, organism-based. The settings on record: in vivo.

T1 sequence (P00742 41-179 limits assumed): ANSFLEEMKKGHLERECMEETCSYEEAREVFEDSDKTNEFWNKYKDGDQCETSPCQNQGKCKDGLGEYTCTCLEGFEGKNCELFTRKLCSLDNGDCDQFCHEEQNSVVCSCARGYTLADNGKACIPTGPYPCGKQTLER
T1 sequence (P00742 235-488 limits assumed): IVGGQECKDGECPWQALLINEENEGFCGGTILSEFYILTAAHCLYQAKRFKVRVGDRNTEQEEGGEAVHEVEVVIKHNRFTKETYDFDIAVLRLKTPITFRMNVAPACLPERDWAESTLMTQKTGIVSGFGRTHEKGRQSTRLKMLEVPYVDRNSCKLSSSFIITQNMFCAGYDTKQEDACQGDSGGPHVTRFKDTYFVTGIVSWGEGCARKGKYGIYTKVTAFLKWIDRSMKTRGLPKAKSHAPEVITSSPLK
Chain of Plasminogen (P00747 97-580 limits assumed): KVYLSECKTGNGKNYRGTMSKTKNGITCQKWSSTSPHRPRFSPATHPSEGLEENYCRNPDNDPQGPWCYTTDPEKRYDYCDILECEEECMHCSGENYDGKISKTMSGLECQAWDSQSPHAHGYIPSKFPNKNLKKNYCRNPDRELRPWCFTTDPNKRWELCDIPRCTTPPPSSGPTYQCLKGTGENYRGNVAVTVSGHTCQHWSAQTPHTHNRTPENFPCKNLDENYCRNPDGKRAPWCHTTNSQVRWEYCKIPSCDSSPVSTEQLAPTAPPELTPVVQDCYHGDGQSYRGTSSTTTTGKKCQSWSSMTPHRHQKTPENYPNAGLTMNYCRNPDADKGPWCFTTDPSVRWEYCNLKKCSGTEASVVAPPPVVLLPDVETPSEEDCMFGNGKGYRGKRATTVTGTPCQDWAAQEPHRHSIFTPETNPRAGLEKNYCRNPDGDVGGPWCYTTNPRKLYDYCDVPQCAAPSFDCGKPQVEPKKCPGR
Chain of Plasminogen (P00747 581-810 limits assumed): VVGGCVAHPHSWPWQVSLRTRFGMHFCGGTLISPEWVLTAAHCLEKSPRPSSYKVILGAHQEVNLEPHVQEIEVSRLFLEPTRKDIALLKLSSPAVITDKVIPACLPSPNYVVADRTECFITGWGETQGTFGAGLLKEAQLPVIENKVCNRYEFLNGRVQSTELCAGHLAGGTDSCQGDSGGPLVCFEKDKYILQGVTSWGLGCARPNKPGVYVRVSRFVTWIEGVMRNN
Chain of Serine protease 1 (P07477 whole entry): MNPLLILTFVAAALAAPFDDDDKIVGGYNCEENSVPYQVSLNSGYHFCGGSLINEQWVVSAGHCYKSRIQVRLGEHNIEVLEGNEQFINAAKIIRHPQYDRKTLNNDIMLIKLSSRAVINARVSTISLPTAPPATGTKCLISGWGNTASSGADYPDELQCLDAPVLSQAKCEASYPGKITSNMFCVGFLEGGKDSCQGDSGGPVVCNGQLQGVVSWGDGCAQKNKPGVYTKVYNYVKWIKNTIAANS
Chain of Vitamin K-dependent protein C (P04070 43-197 limits assumed): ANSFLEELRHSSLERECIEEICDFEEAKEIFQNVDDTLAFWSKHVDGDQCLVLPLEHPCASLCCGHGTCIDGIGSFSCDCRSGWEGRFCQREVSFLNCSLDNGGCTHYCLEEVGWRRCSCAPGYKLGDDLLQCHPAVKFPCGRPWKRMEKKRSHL
Chain of Vitamin K-dependent protein C (P04070 212-461 limits assumed): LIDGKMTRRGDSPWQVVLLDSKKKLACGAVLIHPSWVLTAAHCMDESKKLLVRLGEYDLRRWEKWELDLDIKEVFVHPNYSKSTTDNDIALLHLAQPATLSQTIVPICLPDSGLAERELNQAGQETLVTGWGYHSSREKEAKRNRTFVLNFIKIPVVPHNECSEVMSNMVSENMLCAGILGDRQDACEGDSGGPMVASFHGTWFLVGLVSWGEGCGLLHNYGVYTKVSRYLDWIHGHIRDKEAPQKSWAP
Chain of Tissue-type plasminogen activator (P00750 whole entry): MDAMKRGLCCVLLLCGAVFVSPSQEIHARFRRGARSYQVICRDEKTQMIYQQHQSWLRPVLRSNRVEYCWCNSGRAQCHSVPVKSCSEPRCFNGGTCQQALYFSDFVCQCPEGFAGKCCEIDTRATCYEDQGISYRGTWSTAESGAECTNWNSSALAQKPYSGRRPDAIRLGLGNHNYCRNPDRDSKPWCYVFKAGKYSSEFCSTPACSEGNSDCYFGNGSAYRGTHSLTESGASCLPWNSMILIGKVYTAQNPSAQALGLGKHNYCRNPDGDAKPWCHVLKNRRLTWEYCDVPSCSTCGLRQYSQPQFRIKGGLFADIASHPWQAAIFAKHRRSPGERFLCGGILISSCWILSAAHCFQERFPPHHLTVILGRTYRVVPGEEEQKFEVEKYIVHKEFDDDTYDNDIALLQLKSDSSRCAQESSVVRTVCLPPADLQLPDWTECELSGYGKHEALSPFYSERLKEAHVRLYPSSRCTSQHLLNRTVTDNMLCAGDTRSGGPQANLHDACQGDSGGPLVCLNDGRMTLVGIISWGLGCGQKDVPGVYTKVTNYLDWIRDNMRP

In the data set listed under Oryctolagus cuniculus [1], `Cc1c(S(=O)(=O)N2CCN(CC(=O)NC(CCCN=C(N)N)C(=O)c3nccs3)C(=O)C2)sc2ccc(Cl)cc12` (stereo not drawn) registered a Plasma concentration of 1.6 µM. The molecule also had a 2x PT in data set [2] of 14.5 µM. For the same molecule, at Coagulation factor X [3], the k_off result is “inactive” and the k_on result is “inactive”. The “2x TG” value in data set [4] was 5.46 µM. Further, the Inhibition in the data set filed under Oryctolagus cuniculus [5] came out at 0%. For the same molecule, 0.0094 µM corresponded to half-maximal inhibition in data set [6] (IC50). In data set [7], this molecule gave a 2x APTT of 15.5 µM.
Consider `N=C(N)NCCC[C@@H](NC(=O)CN1CCN(S(=O)(=O)Cc2ccccc2)CC1=O)C(=O)c1nccs1`, for which the IC50 was 12.1 µM against Plasminogen; 0.39 µM against Prothrombin; 4.01 µM in [12]; 0.004 µM at Coagulation factor X [13]; > 180 µM in [16]; 0.033 µM against Serine protease 1. The molecule further displayed an IC50 in [6] of 0.677 µM. Besides, the k off at Coagulation factor X [8] stood at 0.013 s⁻¹. For the same molecule, the k on on Coagulation factor X [8] turned out to be 2.3e+06 M⁻¹ s⁻¹. For the same molecule, in the data set on Oryctolagus cuniculus [9], the Plasma concentration was 0.4 µM. This molecule also registered a half-life in [10] of 10 min. Further, the “2x TG” value in data set [11] is “inactive”. Further, the 2x PT in data set [2] was found to be 11.7 µM. Besides, the Inhibition with Oryctolagus cuniculus [14] was found to be 35%. Also, at Coagulation factor X [15], the Ki was 0.0014 µM. Moreover, the 2x APTT in data set [7] worked out at 2.8 µM.
Turning to `Cc1c(S(=O)(=O)N2CCN(CC(=O)NC(CCCNC(=N)N)C(=O)c3nccs3)C(=O)C2)sc2ccc(Cl)cc12` (stereo not drawn), the IC50 against Plasminogen was determined as 1.3 µM; against Prothrombin it was 0.751 µM; in data set [12], 9.96 µM; on Coagulation factor X [13], 0.00051 µM; in [16], 169 µM; against Serine protease 1, 0.02 µM. The same molecule had a half-life in data set [17] of 5 min. The molecule further had an inhibition constant Ki on Coagulation factor X [15] of 0.00017 µM.
As to `N=C(N)NCCCC(NC(=O)CN1CCN(S(=O)(=O)c2ccc3c(Cl)cccc3c2)CC1=O)C(=O)c1nccs1` (stereo not drawn), the Plasma concentration in the data set filed under Oryctolagus cuniculus [1] was 0.2 µM. Moreover, the IC50 came to 1.88 µM at Plasminogen; 2 µM at Prothrombin; 0.74 µM in [12]; 0.00079 µM against Coagulation factor X [13]; 170 µM in [16]; 0.0205 µM on Serine protease 1. Besides, the half-maximal inhibitory concentration (IC50) in data set [6] was 0.034 µM. The molecule also returned a 2x PT in [2] of 12.5 µM. The k_off entry on Coagulation factor X [3] was “inactive”. In addition, on Coagulation factor X [3], the k_on entry is “inactive”. In addition, the half-life in data set [17] was found to be 51 min. On Coagulation factor X [15], this molecule had a Ki of 0.0013 µM. In addition, the “2x TG” value in data set [4] is “inactive”. The Inhibition in the data set listed under Oryctolagus cuniculus [5] was determined as 0%. Moreover, in data set [7], the 2x APTT is 12.5 µM.

(Values after ChEMBL document CHEMBL1136598, “Design, synthesis, and structure-activity relationships of unsubstituted piperazinone-based transition state factor Xa inhibitors” (Bioorg Med Chem Lett, 2003).)
